Data on four compounds can be found in EP2266530A1, “Oxazolidinones for cosmetic cutaneous use” (Laboratoires Expanscience, priority 2002, dated 2004).

In one assay the test system is cellules de Langerhans. The experiment in a line: Migration of freshly isolated, DNSB-sensitised Langerhans cells through Matrigel in a two-compartment culture chamber. The conditions noted are these: for inhibition de la migration des CL induite par le DNSB (result in words): compound 1 µM.
Another assay relates to cellules dendritiques. The experiment in a line: FITC-induced migration of dendritic cells from ear skin to draining lymph nodes in mice (flow cytometry). The assay is classed as in vivo, souris. An excerpt:
Le FITC (Fluorescéine isothiocyanate, Sigma, St. Louis, MO) a été dilué extemporanément dans un mélange acétone : dibutylphthalate (1:1).
L'oxazolidinone B et le LU105 (LU 105 est un inhibiteur de MMPs, correspondant à un extrait peptidique de lupin blanc commercialisé par la Société Expanscience sous le nom de marque Actimp 193®) ont été fournis par les "Laboratoires Expanscience", et formulés seuls ou en association dans un véhicule inerte compatible avec une application topique, tel que décrit à l'exemple 1 ci-dessus [oxazolidinone B (0,5%) ± LU105 (2%)]. Les différentes formulations ont été appliquées sur les oreilles de souris deux fois par jour pendant 4 jours consécutifs. Trois heures après la dernière application, 1,5% de FITC sont appliqués sur les deux oreilles (l'une traitée et l'autre non traitée (Contrôle)).
L'effet des deux molécules a été évalué in vivo chez la souris. La peau des deux oreilles est badigeonnée avec 1,5% FITC (2X5 µl). 24 h après, les souris sont sacrifiées et une suspension cellulaire est préparée à partir des ganglions auriculaires et cervicaux (ganglions drainants, ci-après dénommés GL) ou à partir des ganglions popliteaux (ganglions non drainants, contrôle négatif). Les tissus ont été découpés et les cellules sont séparées par filtration (filtre […], Falcon; Becton Dickinson), puis lavés. […]
In general terms: A flow cytometer gives signals particle by particle.

Experimental for cellules de Langerhans: Des suspensions de cellules épidermiques ont été obtenues par traitement enzymatique (0,05% trypsine, pendant 18h à +4°C) de fragments de peau humaine normale issus de chirurgie plastique. Les suspensions obtenues contiennent en moyenne 2 à 4% de CL. L'obtention de suspensions contenant en moyenne 70% de CL est basée sur le principe de la centrifugation sur gradient de densité (Lymphoprep™) et élimination des kératinocytes.
Le milieu de base choisi pour l'ensemble de l'étude a été le RPMI 1640 (Gibco BRL, France).
On a utilisé comme agent sensibilisateur le DNSB (Sigma Aldrich), forme soluble du DNCB (dinitro-chloro-benzène), solubilisé en RPMI-BSA et utilisé à la concentration de 50 µM.
Un système de chambre de culture à deux compartiments (Falcon, Becton Dickinson, France) a été utilisé. Le compartiment supérieur est séparé du compartiment inférieur par une membrane de porosité 8 µm, sur laquelle sont déposées 50 µg/cm^2 de Matrigel. La membrane est alors recouverte de protéines formant un film équivalent à une membrane basale (laminine, collagène IV, nidogène, entactine, héparane sulfate protéoglycanes). Les cellules reprises dans le milieu RPMI-BSA seul ou en présence des différents produits sont déposées dans le compartiment supérieur. Dans le compartiment inférieur, est ajouté du surnageant de culture de fibroblastes humains normaux. Après 18h d'incubation à 37°C, le nombre de cellules vivantes ayant traversé le Matrigel et se trouvant dans le compartiment inférieur est compté sous microscope (les CL sont facilement identifiables par leur forme dendritique). Chaque essai est réalisé en triplicate.
Dans l'expression des résultats, la capacité migratoire des CL contrôle (non traitées et non sensibilisées) est arbitrairement fixée à 1.

Regarding `CCCCCCCCCCCCC1COC(=O)N1CCCCCCCCCCCC` (centres unmarked) [oxazolidinone C, 3,4-didodécyl-oxazolidin-2-one], the “inhibition de la migration des CL induite par le DNSB (result in words)” value in the assay on cellules de Langerhans (Example 3) is given as “inhibent de manière significative”.
On to `O=[N+]([O-])c1ccc(S(=O)(=O)O)c([N+](=O)[O-])c1` [DNSB, reference compound], for which the “stimulation de la migration des CL par rapport aux cellules contrôle” value with cellules de Langerhans (Example 3, DNSB 50 µM alone) is reported as “+113%”. In addition, in the assay on cellules de Langerhans (Example 4, cells sensitised with DNSB alone, control cells = 1), the Index de migration is on record as 1,78.
As for `CCCCCCCCCCCCC1COC(=O)N1` (centres unmarked) [oxazolidinone A, 4-dodécyl-oxazolidin-2-one], the “inhibition de la migration des CL induite par le DNSB (result in words)” value in the assay with cellules de Langerhans (Example 3) is “inhibent de manière significative”.
As for `CCCCCCCCCCCCC1NC(=O)OC1CCCCCCCCCCCC` (centres unmarked) [oxazolidinone B, 4,5-didodécyl-oxazolidin-2-one], the “Inhibition de la migration en %” value in the assay on cellules dendritiques (0,5% topical on mouse ears, twice daily for 4 days, FITC 1,5%, read 24 h later) was 28%. Further, the “inhibition de la migration des CD vers les GL (result in words)” value in the assay on cellules dendritiques (mice sensitised with FITC, oxazolidinone B alone) is reported as “inhibe de manière significative”. For the same compound, the “inhibition de la migration des CL induite par le DNSB (result in words)” value with cellules de Langerhans (Example 3) is given as “inhibent de manière significative”. In the assay with cellules de Langerhans (Example 4, tested separately), the “inhibition de la migration des CL sensibilisées (result in words)” value is on record as “inhibent de manière significative”.
